Reference: PMC8554850, “Allergens of the urushiol family promote mitochondrial dysfunction by inhibiting the electron transport at the level of cytochromes b and chemically modify cytochrome c1” (Biological Research, 2021)

Experiments:
cytochrome c1 = biological target: T1, cytochrome c1 (Bos taurus, UniProt P00125); assay: tritium labelling of mitochondria, 1D and 2D-PAGE photofluorography, western blot, tryptic mass fingerprint; type: binding; conditions: covalent; labelled compound; 5 µM, 30 min, 25 °C, then chased with 1 mM cold litreol; Lys202 and N-terminal peptide proposed
T1 construct: gene CYC1; native, in isolated heart mitochondria (complex III, inner membrane); about 27 kD on SDS-PAGE; printed peptides SDLELHPPSYPWSHR (1-15) and WAAEPEHDHRK (192-202)
T1 sequence (P00125 85-325): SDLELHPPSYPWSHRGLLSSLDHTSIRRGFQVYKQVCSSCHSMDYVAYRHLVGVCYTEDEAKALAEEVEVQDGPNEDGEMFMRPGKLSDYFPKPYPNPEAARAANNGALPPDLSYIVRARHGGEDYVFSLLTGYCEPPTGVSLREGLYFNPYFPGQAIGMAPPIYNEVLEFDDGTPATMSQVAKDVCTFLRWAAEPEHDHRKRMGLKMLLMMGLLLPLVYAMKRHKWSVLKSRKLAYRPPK

[1] = biological target: T2, complex III (cytochrome bc1) (Rattus norvegicus, UniProt P00159); assay: duroquinol:cytochrome c reduction, Hanes-Woolf; cytochrome b redox spectrophotometry; type: biochemical
T2 construct: gene Mt-cyb; native complex III in liver mitochondria / submitochondrial particles; with Cytochrome c1, heme protein, mitochondrial; Cytochrome b-c1 complex subunit Rieske, mitochondrial
T2 sequence (P00159 whole entry): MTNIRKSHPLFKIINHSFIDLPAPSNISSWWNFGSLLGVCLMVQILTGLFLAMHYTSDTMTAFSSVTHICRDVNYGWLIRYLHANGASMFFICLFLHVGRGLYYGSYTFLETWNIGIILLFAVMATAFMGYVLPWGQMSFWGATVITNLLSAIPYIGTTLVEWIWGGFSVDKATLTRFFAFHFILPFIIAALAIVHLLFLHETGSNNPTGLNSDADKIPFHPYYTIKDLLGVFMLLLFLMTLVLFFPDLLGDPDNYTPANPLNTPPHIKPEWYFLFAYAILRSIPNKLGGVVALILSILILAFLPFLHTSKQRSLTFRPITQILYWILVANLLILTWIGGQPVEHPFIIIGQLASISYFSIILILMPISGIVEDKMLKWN
T2 sequence (D3ZFQ8 87-326 partner): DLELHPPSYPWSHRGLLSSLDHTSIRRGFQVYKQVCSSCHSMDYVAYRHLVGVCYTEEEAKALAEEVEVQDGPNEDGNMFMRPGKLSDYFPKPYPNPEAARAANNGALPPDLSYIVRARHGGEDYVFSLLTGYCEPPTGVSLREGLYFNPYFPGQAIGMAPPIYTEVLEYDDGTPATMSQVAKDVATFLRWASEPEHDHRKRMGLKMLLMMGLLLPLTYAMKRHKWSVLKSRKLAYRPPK
T2 sequence (P20788 79-274 partner): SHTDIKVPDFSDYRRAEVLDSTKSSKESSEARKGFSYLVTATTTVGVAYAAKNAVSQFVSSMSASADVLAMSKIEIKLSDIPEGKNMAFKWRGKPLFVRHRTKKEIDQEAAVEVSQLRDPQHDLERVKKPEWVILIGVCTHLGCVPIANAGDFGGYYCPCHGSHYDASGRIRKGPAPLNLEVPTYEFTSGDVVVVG

Question: For CCCCCCCCCCCCCCCc1cccc(O)c1O [3H-litreol], which “tritium labelling of mitochondria, 1D and 2D-PAGE photofluorography, western blo” value (cytochrome c1) is on record?
Answer: Litreol binds to an inner mitochondrial membrane protein from bovine heart mitochondria

Question: With Cc1c(C)c(O)c(C)c(C)c1O [duroquinol] as the compound, how does the “duroquinol:cytochrome c reduction, Hanes-Woolf; cytochrome b redox spectrophotom” value ([1]; electron donor, acceptor cytochrome c) read?
Answer: The enzyme kinetics of complex III for Dur and cytochrome c were measured

Question: With CCCC/C=C\CCCCCCCCCc1cccc(O)c1O [litreol, 3-(10-Z-pentadecenyl)-catechol] as the compound, how does the “duroquinol:cytochrome c reduction, Hanes-Woolf; cytochrome b redox spectrophotom” value ([1]; noncompetitive vs duroquinol and cytochrome c, 10 µM litreol, electron flow halted between bL and bH, pH 7.4) read?
Answer: Litreol is a noncompetitive inhibitor of complex III at the level of the cytochrome bc1
